Assay results taken from US7786298B2, “Compounds and methods for nucleic acid mismatch detection” (California Institute of Technology, priority 2006, dated 2010).

Tested on: oligonucleotides containing a central CC mismatch
Assay: Photocleavage testing, denaturing PAGE of 5′-32P-end-labeled oligonucleotides
Format: biochemical
Settings: duplex 1 μM, Rh 1 μM, 20 mM NaCl, 10 mM NaPi, pH 7.1, 30 min, irradiation 5 min (325-450 nm); fully matched and mismatched oligonucleotides
Description: Compounds PEG-RhOG and [Rh(chrysi)(phen)(^PEGbipy)]^3+(i.e., compound A and intermediate 2, respectively, as described above) were used for photocleavage testing. Denaturing PAGE experiments with 5′-32P-end-labeled oligonucleotides containing or lacking a central CC mismatch were employed to test specific site targeting. Duplex DNA (1 μM) was incubated with variable concentrations of compound A (100 nm to 5 μM) for 30 min and then irradiated for 5 min.
Conditions were duplex (1 μM), Rh (1 μM) in 20 mM NaCl, 10 mM NaPi, pH 7.1 for 30 min at ambient temperature followed by irradiation for 5 min with a solar simulator (325-450 nm). Lanes 1, 2, 11, and 12 show Maxam-Gilbert sequencing reactions for matched (1, 2) and mismatched (11, 12) DNA. For matched and mismatched DNA, respectively, lanes 3 and 7 show fragments irradiated with no metal complex; lanes 4 and 8 show fragments with compound A but no irradiation; lanes 5, 6, 9, and 10 show fragments after irradiation in the presence of compound A (5, 9) and intermediate 2 (6, 10). The DNA sequence was 5′-32P-end-labeled-GCGCCGTCGTXCATGTG-3′ (SEQ ID NO:4) where X=C, G with a complement containing a matched or mismatched C at the bold site. The arrow marks the mismatched site.

[Rh(chrysi)(phen)(^PEGbipy)]^3+ [intermediate 2]
photocleavage on autoradiogram of denaturing 20% polyacrylamide gel: photocleavage
